Data on 43 molecules can be found in patent US12649751B2 (Arcus Biosciences, Inc., priority 2022, dated 2026).

Where two headings read alike, the source gives them in different places.

Test [1] has as its system p-SLP-76 (Ser376) in Jurkat cells. In words: pSLP76 Cellular Assay (AlphaLISA SureFire Ultra p-SLP-76 (Ser376), anti-CD3 activated Jurkat cells). In kind it is cell-based. As to conditions: Homo sapiens; pSLP76 (Ser376) AlphaLISA, anti-CD3 activated Jurkat cells; read-out: Cellular Potency. In outline: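 Read-out is AlphaLISA p-SLP-76 (Ser376) signal at 570 nm in Jurkat lysates, with IC50 fitted by 4-parameter logistic. Cells were starved overnight, exposed 1 h at 37 °C to 22 twofold compound dilutions in HBSS, then activated 45 min with anti-CD3 (0.025 mg/ml stock added).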
In general terms: Bead proximity is the source of the signal in Alpha formats.

A further test addresses HPK1 (Homo sapiens, UniProt Q92918). In words: HPK1 Biochemical Assay (ADP-Glo luminescence; low ATP 10 μM or high ATP 200 μM). Particulars: HPK1 ADP-Glo assay.
Setting [2] is: high ATP (200 μM ATP, 5 nM HPK1), read-out: Biochemical Potency (high ATP).
Where [3] appears, read: low ATP (10 μM ATP, 2 nM HPK1), read-out: Biochemical Potency (low ATP).

Chain of HPK1 (Q92918 whole entry, species assumed): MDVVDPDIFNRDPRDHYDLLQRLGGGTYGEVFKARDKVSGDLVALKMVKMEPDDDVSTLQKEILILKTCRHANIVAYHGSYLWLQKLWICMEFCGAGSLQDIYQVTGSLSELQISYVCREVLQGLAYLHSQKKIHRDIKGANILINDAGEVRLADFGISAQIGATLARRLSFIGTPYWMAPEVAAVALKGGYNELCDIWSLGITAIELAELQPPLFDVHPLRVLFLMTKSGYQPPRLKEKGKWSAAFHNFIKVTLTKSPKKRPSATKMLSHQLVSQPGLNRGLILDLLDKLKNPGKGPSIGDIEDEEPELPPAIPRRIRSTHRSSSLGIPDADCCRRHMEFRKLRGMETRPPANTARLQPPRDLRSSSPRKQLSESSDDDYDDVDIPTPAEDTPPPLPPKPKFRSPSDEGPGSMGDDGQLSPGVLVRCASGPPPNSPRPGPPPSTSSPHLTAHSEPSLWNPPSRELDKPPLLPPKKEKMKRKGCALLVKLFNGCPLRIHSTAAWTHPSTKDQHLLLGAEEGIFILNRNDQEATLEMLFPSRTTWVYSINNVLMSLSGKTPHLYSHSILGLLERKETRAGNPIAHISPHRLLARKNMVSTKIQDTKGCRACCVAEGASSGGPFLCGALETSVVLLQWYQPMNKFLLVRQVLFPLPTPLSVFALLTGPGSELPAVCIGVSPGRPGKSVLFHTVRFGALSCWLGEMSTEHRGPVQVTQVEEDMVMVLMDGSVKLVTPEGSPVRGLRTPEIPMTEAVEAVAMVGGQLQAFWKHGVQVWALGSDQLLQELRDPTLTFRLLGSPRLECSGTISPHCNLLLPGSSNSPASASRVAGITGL

For `CCN1C[C@@H]2C[C@H]1CN2c1nc(C)cc(Nc2cc3nc(-c4cncc(N5CCC(F)CC5)c4)sc3cn2)n1` [Example 470], the IC50 is 100 to 1000 nM in test [1] and less than 100 nM on HPK1 (setting [2]).
With `CCN1C[C@@H]2C[C@H]1CN2c1nc(C)cc(Nc2cc3nc(-c4cncc(N[C@H](C)c5ccccc5)c4)sc3cn2)n1` [Example 471], the figures for the IC50 (in test [1]; on HPK1 (setting [2])) were 100 to 1000 nM and less than 100 nM, respectively.
The corresponding values for `CCN1C[C@@H]2C[C@H]1CN2c1nc(C)cc(Nc2cc3nc(-c4cncc(N5C[C@H]6COC[C@H]6C5)c4)sc3cn2)n1` [Example 472] are 100 to 1000 nM and less than 100 nM.
On to `CCN1C[C@@H]2C[C@H]1CN2c1nc(C)cc(Nc2cc3nc(-c4ccnc(N5CCOC[C@H]5C(C)C)c4)sc3cn2)n1` [Example 474], for which the IC50 (in test [1]; on HPK1 (setting [2])) was less than 100 nM throughout.
`CC[C@@H]1COCCN1c1cc(-c2nc3cc(Nc4cc(C)nc(N5C[C@@H]6C[C@H]5CN6CC)n4)ncc3s2)ccn1` [Example 475]: the IC50 (in test [1]; on HPK1 (setting [2])) was less than 100 nM each time.
As for `Cc1cc(Nc2cc3nc(-c4cncc(N5CCOC[C@H]5C)c4)sc3cn2)nc(N2C[C@@H]3C[C@H]2CN3CCO)n1` [Example 476], the IC50 (in test [1]; at HPK1 (setting [2])) was less than 100 nM in each case.
Take `Cc1cc(Nc2cc3nc(-c4cncc(N5CCOCC5)c4)sc3cn2)nc(N2C[C@@H]3C[C@H]2CN3CCO)n1` [Example 477]: the IC50 was 100 to 1000 nM in test [1] and less than 100 nM at HPK1 (setting [2]).
Regarding `Cc1cc(Nc2cc3nc(-c4ccnc(N5CCS(=O)(=O)CC5)c4)sc3cn2)nc(N2C[C@@H]3C[C@H]2CN3C)n1` [Example 478], the IC50 in test [1] is 100 to 1000 nM; on HPK1 (setting [2]), less than 100 nM.
In the same order, the values of `Cc1cc(Nc2cc3nc(-c4cccc(N5CC(F)C5)c4)sc3cn2)nc(N2C[C@@H]3C[C@H]2CN3C)n1` [Example 479] are 100 to 1000 nM and less than 100 nM.
The corresponding values for `Cc1cc(Nc2cc3nc(-c4ccnc(C5CCOCC5)c4)sc3cn2)nc(N2C[C@@H]3C[C@H]2CN3C)n1` [Example 480] are 100 to 1000 nM and less than 100 nM.
For `Cc1cc(Nc2cc3nc(-c4ccncc4O[C@H]4CCOC4)sc3cn2)nc(N2C[C@@H]3C[C@H]2CN3C)n1` [Example 481], the IC50 in test [1] is 1000 to 5000 nM; at HPK1 (setting [2]), less than 100 nM.
Turning to `Cc1cc(Nc2cc3nc(-c4ccnc(O[C@H]5CCOC5)c4)sc3cn2)nc(N2C[C@@H]3C[C@H]2CN3C)n1` [Example 482], the IC50 is 1000 to 5000 nM in test [1] and less than 100 nM at HPK1 (setting [2]).
In the same order, the values of `CCN1C[C@@H]2C[C@H]1CN2c1nc(C)cc(Nc2cc3nc(O[C@@H](C)c4ccccc4)sc3cn2)n1` [Example 483] are 100 to 1000 nM and less than 100 nM.
The corresponding values for `CCN1C[C@@H]2C[C@H]1CN2c1nc(C)cc(Nc2cc3nc(Oc4cccnc4)sc3cn2)n1` [Example 484] are less than 100 nM and less than 100 nM.
With `CCN1C[C@@H]2C[C@H]1CN2c1nc(C)cc(Nc2cc3nc(O[C@H](C)c4c(Cl)ccc(F)c4Cl)sc3cn2)n1` [Example 485], the IC50 in test [1] is 100 to 1000 nM; on HPK1 (setting [2]) it was less than 100 nM.
In the case of `Fc1cccc(F)c1-c1nc2cc(Nc3cc4c(cn3)CCNC4)ncc2s1` [Example 486], the IC50 in test [1] was in the range of 5000 to 25000 nM; at HPK1 (setting [3]) it was 100 to 1000 nM.
In the case of `Cc1cc(Nc2cc3nc(-c4cccc(C(=O)N(C)C)c4)sc3cn2)nc(N2C[C@@H]3C[C@H]2CN3[C@H]2CCOC2)n1` [Example 487], the IC50 (in test [1]; at HPK1 (setting [2])) was less than 100 nM throughout.
As for `Cc1cc(Nc2cc3nc(-c4cccc(C(=O)N(C)C)c4)sc3cn2)nc(N2C[C@@H]3C[C@H]2CN3C[C@@H]2CCOC2)n1` [Example 488], the IC50 in test [1] was 100 to 1000 nM; at HPK1 (setting [2]), less than 100 nM.
Regarding `CCOCCN1C[C@@H]2C[C@H]1CN2c1nc(C)cc(Nc2cc3nc(-c4cccc(C(=O)N(C)C)c4)sc3cn2)n1` [Example 489], the figures for the IC50 (in test [1]; at HPK1 (setting [2])) were 100 to 1000 nM and less than 100 nM, respectively.
In the same order, the values of `Cc1cc(Nc2cc3nc(-c4cccnc4)sc3cn2)nc(N2C[C@@H]3C[C@H]2CN3Cc2ccccc2)n1` [Example 490] are 100 to 1000 nM and less than 100 nM.
For the molecule `Cc1cc(Nc2cc3nc(-c4cccc(C(=O)N(C)C)c4)sc3cn2)nc(N2C[C@@H]3C[C@H]2CN3CCOC(C)C)n1` [Example 492], the IC50 in test [1] was 100 to 1000 nM; on HPK1 (setting [2]), less than 100 nM.
For the molecule `Cc1cc(Nc2cc3nc(-c4cccc(C(=O)N(C)C)c4)sc3cn2)nc(N2C[C@@H]3C[C@H]2CN3Cc2ccccn2)n1` [Example 493], the IC50 in test [1] was 100 to 1000 nM; on HPK1 (setting [2]), less than 100 nM.
On to `Cc1cc(Nc2cc3nc(-c4cccc(C(=O)N(C)C)c4)sc3cn2)nc(N2C[C@@H]3C[C@H]2CN3Cc2cnn(C)c2)n1` [Example 494], for which the IC50 in test [1] is 100 to 1000 nM; on HPK1 (setting [2]), less than 100 nM.
Turning to `CC(=O)N(C)CCN1C[C@@H]2C[C@H]1CN2c1nc(C)cc(Nc2cc3nc(-c4cccc(C(=O)N(C)C)c4)sc3cn2)n1` [Example 495], the IC50 is 100 to 1000 nM in test [1] and less than 100 nM on HPK1 (setting [2]).
Take `Cc1cc(Nc2cc3nc(-c4cccc(C(=O)N(C)C)c4)sc3cn2)nc(N2C[C@@H]3C[C@H]2CN3Cc2ccccc2)n1` [Example 496]: the IC50 (in test [1]; at HPK1 (setting [2])) was less than 100 nM each time.
With `Cc1cc(Nc2cc3nc(-c4cccc(C(=O)N(C)C)c4)sc3cn2)nc(N2C[C@@H]3C[C@H]2CN3Cc2cccnc2)n1` [Example 497], the IC50 is 100 to 1000 nM in test [1] and less than 100 nM at HPK1 (setting [2]).
For `Cc1cc(Nc2cc3nc(-c4cccc(C(=O)N(C)C)c4)sc3cn2)nc(N2C[C@@H]3C[C@H]2CN3CCN(C)S(C)(=O)=O)n1` [Example 498], the IC50 in test [1] was in the range of 1000 to 5000 nM; on HPK1 (setting [2]) it was 100 to 1000 nM.
In the same order, the values of `Cc1cc(Nc2cc3nc(-c4cnn(C)c4)sc3cn2)nc(N2C[C@@H]3C[C@H]2CN3C[C@@H](C)O)n1` [Example 499] are less than 100 nM and less than 100 nM.
Turning to `Cc1cc(Nc2cc3nc(-c4cccc(S(=O)(=O)C5CC5)c4)sc3cn2)nc(N2C[C@@H]3C[C@H]2CN3CCO)n1` [Example 500], the IC50 (in test [1]; on HPK1 (setting [2])) was less than 100 nM throughout.
For `Cc1cc(Nc2cc3nc(-c4cccc(S(=O)(=O)CC5CC5)c4)sc3cn2)nc(N2C[C@@H]3C[C@H]2CN3CCO)n1` [Example 501], the IC50 (in test [1]; at HPK1 (setting [2])) was less than 100 nM each time.
Turning to `Cc1cc(Nc2cc3nc(-c4cccc(C(=O)N(C)C)c4)sc3cn2)nc(N2C[C@@H]3C[C@H]2CN3CCOCCO)n1` [Example 502], the IC50 was 100 to 1000 nM in test [1] and less than 100 nM on HPK1 (setting [2]).
The corresponding values for `Cc1cc(Nc2cc3nc(-c4cnn(CC5CC5)c4)sc3cn2)nc(N2C[C@@H]3C[C@H]2CN3CC(C)(C)O)n1` [Example 503] are 100 to 1000 nM and less than 100 nM.
The corresponding values for `CCN(CC)C(=O)c1cccc(-c2nc3cc(Nc4cc(C)nc(N5C[C@@H]6C[C@H]5CN6CCO)n4)ncc3s2)c1` [Example 504] are less than 100 nM and less than 100 nM.
The corresponding values for `CCN(C)C(=O)c1cccc(-c2nc3cc(Nc4cc(C)nc(N5C[C@@H]6C[C@H]5CN6CCO)n4)ncc3s2)c1` [Example 505] are less than 100 nM and less than 100 nM.
For `COCCN1C[C@@H]2C[C@H]1CN2c1nc(C)cc(Nc2cc3nc(-c4cccc(C(=O)N(C)C)c4)sc3cn2)n1` [Example 506], the IC50 was 100 to 1000 nM in test [1] and less than 100 nM at HPK1 (setting [2]).
On to `Cc1cccnc1-c1nc2cc(Nc3cc(C4CCC(O)CC4)nc(N4C[C@@H]5C[C@H]4CN5C)n3)ncc2s1` (stereo partly shown) [Example 507], for which the IC50 in test [1] was 100 to 1000 nM; at HPK1 (setting [2]) it was less than 100 nM.
Regarding `c1cnn(-c2nc3cc(Nc4cnc(C5CCOCC5)c(N5C[C@@H]6C[C@H]5CN6)n4)ncc3s2)c1` [Example 508], the IC50 (in test [1]; on HPK1 (setting [2])) was less than 100 nM in each case.
On to `CC(C)(O)c1cccc(-c2nc3cc(Nc4cnc(C5CCOCC5)c(N5C[C@@H]6C[C@H]5CN6)n4)ncc3s2)c1` [Example 509], for which the IC50 (in test [1]; at HPK1 (setting [2]); at HPK1 (setting [3])) was less than 100 nM each time.
On to `Cc1cccnc1-c1nc2cc(Nc3cnc(C4CCOCC4)c(N4C[C@@H]5C[C@H]4CN5)n3)ncc2s1` [Example 510], for which the IC50 (in test [1]; at HPK1 (setting [2]); on HPK1 (setting [3])) was less than 100 nM throughout.
Turning to `CCN1C[C@@H]2C[C@H]1CN2c1nc(C)cc(Nc2cc3nc(-c4cccc(C(=O)N5CCC[C@@H](C)C5)c4)sc3cn2)n1` [Example 511], the IC50 in test [1] was 100 to 1000 nM; on HPK1 (setting [2]), less than 100 nM.
Turning to `CCN1C[C@@H]2C[C@H]1CN2c1nc(C)cc(Nc2cc3nc(-c4cccc(C(=O)N5CCC[C@H](C)C5)c4)sc3cn2)n1` [Example 512], the IC50 (in test [1]; at HPK1 (setting [2])) was less than 100 nM throughout.
Consider `CCN1C[C@@H]2C[C@H]1CN2c1nc(C)cc(Nc2cc3nc(-c4ccc(F)c(C(=O)NC5CCCC5)c4)sc3cn2)n1` [Example 513], for which the IC50 (in test [1]; at HPK1 (setting [2])) was less than 100 nM each time.
Regarding `CCN1C[C@@H]2C[C@H]1CN2c1nc(C)cc(Nc2cc3nc(-c4ccnc(C(=O)NC5CCCC5)c4)sc3cn2)n1` [Example 514], the IC50 in test [1] is 100 to 1000 nM; at HPK1 (setting [2]) it was less than 100 nM.
